{"source": "patent US10695296B2", "about": "“Formulations, methods, kit, and dosage forms for improved stability of an active pharmaceutical ingredient” (Asana BioSciences, LLC, priority 2017, dated 2020)", "experiment": "Dissolution, USP <711> Apparatus 2 paddle method at 50 rpm", "assay_type": "physicochemical", "settings": "500 ml 0.01 N HCl or 50 mM phosphate buffer (pH 6.8), 0.5% sodium lauryl sulfate, paddle 50 rpm", "procedure": "The dissolution characteristics of the spray-dried formulation prepared in Example 2 above were measured by suspending the formulation in 500 ml 0.01 N HCl or 50 mM phosphate buffer (pH 6.8), 0.5% sodium lauryl sulfate, and measuring dissolution by the USP <711> Apparatus 2 (paddle method) at 50 rpm. As a control, particles of crystalline active ingredient N-(3-(2-(6-amino-4-(trifluoromethyl)pyridin-3-yl)-4-morpholinopyrido[3,2-d]pyrimidin-6-yl)-2-fluorophenyl)-3-fluoropropane-1-sulfonamide (as prepared in Example 7 below) was suspended in either 500 ml 0.01 N HCl or 50 mM phosphate buffer (pH 6.8), 0.5% sodium lauryl sulfate and dissolution measured by the same method.", "data": [{"smiles": "Nc1cc(C(F)(F)F)c(-c2nc(N3CCOCC3)c3nc(-c4cccc(NS(=O)(=O)CCCF)c4F)ccc3n2)cn1", "note": "[crystalline active ingredient, N-(3-(2-(6-amino-4-(trifluoromethyl)pyridin-3-yl)-4-morpholinopyrido[3,2-d]pyrimidin-6-yl)-2-fluorophenyl)-3-fluoropropane-1-sulfonamide]", "values": [{"measurement": "dissolution state after 60 minutes", "value": "still not fully dissolved"}]}]}
